Assay results: patent US20230012560A1, “HEPATITIS B ANTIVIRAL AGENTS” (TAIGEN BIOTECHNOLOGY CO., LTD., priority 2019, published 2023)

Tested on: HBV (HepAD38 cells)
Assay: Real-Time PCR Assay (extracellular HBV DNA from HepAD38 culture supernatants)
Format: cell-based
Details: Hepatitis B virus, 120 h, compound treatment for 5 days without tetracycline, extracellular DNA in culture supernatant quantified by real-time PCR, read-out: EC50 (50% effective concentration)
Protocol: HepAD38 cells were seeded and cultured on 96-well plates. After incubation for 2 days, cells were fed with compound-containing media without tetracycline. After compound treatment for 5 days, culture supernatants were collected. Extracellular DNA was then extracted using LabTurbo DNA mini kit, and quantified by real-time PCR.
Real-time PCR was performed using an ABI QuantStudio 3 system in a 96-well optical plate format. The PCR mixture containing forward primer (5′-[…]-3′) (SEQ ID NO.1), reverse primer (5′-GGTGAGTGATTGGAGGTTG-3′) (SEQ ID NO.2) and Luna Universal qPCR Master Mix in a final volume of 24 μl was incubated at 95° C. for 10 min followed by 45 cycle of incubation at 95° C. for 10 s and 60° C. for 10 s. Regression analysis was performed using GraphPad Prism 5 to calculate the 50% effective concentration (EC50) values.

SMILES	EC50
CNS(=O)(=O)N1CC[C@@H](NS(=O)(=O)c2c(F)c(C(=O)Nc3ccc(F)c(F)c3)n3c2CCC3)C1 [Compound 10]	< 100 nM
CCNC(=O)C(=O)N1CCC(NS(=O)(=O)c2cn(C)c(C(=O)Nc3cc(F)c(F)c(F)c3)c2Cl)C2(CC2)C1 (centres unmarked) [Compound 87]	< 100 nM
CNS(=O)(=O)N1CC[C@@H](NS(=O)(=O)c2cn(C)c(C(=O)Nc3ccc(F)c(C(F)F)c3)c2F)C1 [Compound 16]	< 100 nM
CNS(=O)(=O)N1CC[C@@H](NS(=O)(=O)c2cn(C)c(C(=O)Nc3cc(F)c(F)c(F)c3)c2F)C1 [Compound 6]	< 100 nM
CN(C)C(=O)C(=O)N1CC[C@@H](NS(=O)(=O)c2cn(C)c(C(=O)Nc3cc(F)c(F)c(F)c3)c2F)C1 [Compound 30]	< 100 nM
CCNC(=O)C(=O)N1CCC(NS(=O)(=O)c2cn(/C=C/F)c(C(=O)Nc3cc(F)cc(Cl)c3)c2F)CC1 [Compound 90]	< 100 nM
CNS(=O)(=O)N1CCN(S(=O)(=O)c2cn(C)c(C(=O)Nc3cc(F)c(F)c(F)c3)c2F)CC1 [Compound 66]	100 to 300 nM
CCNC(=O)C(=O)N1CCC(NS(=O)(=O)c2c(F)c(C(=O)Nc3ccc(F)c(F)c3)n(C)c2C)CC1 [Compound 80]	< 100 nM
CC(=O)OCCNC(=O)C(=O)N1CC[C@@H](NS(=O)(=O)c2cn(C)c(C(=O)Nc3cc(F)c(F)c(F)c3)c2F)C1 [Compound 38]	< 100 nM
CCNC(=O)C(=O)N1CCC(NS(=O)(=O)c2cn(C)c(C(=O)Nc3cccc(C(F)(F)F)c3)c2F)CC1 [Compound 73]	< 100 nM
CNC(=O)C(=O)N1CC[C@@H](NS(=O)(=O)c2c(Cl)c(C(=O)Nc3cc(F)c(F)c(F)c3)n3c2CCC3)C1 [Compound 47]	100 to 300 nM
Cn1cc(S(=O)(=O)N[C@@H]2CCN(C(=O)C(=O)NC3COC3)C2)c(F)c1C(=O)Nc1cc(F)c(F)c(F)c1 [Compound 36]	< 100 nM
CCNC(=O)C(=O)N1CCN(S(=O)(=O)c2cn(C)c(C(=O)Nc3cc(F)c(F)c(F)c3)c2F)CC1 [Compound 65]	300 to 1000 nM
CCCNC(=O)C(=O)N1CC[C@@H](NS(=O)(=O)c2cn(C)c(C(=O)Nc3cc(F)c(F)c(F)c3)c2F)C(F)(F)C1 [Compound 98]	< 100 nM
CCNC(=O)C(=O)N1CCC(C)(NS(=O)(=O)c2cn(C)c(C(=O)Nc3cc(F)c(F)c(F)c3)c2F)CC1 [Compound 82]	100 to 300 nM
CNS(=O)(=O)N1CC[C@@H](NS(=O)(=O)c2cn(C)c(C(=O)Nc3ccc(F)c(F)c3)c2F)C1 [Compound 5]	< 100 nM
CNS(=O)(=O)N1CCC(NS(=O)(=O)c2cn(C)c(C(=O)Nc3ccc(F)c(F)c3)c2F)C(F)(F)C1 (centres unmarked) [Compound 27]	< 100 nM
CNS(=O)(=O)N1CC[C@@H](NS(=O)(=O)c2c(Cl)c(C(=O)Nc3cc(F)c(F)c(F)c3)n3c2CCC3)C1 [Compound 12]	< 100 nM
CCONC(=O)C(=O)N1CC[C@@H](NS(=O)(=O)c2cn(C)c(C(=O)Nc3cc(F)c(F)c(F)c3)c2F)C1 [Compound 35]	< 100 nM
C=CCn1cc(S(=O)(=O)N[C@@H]2CCN(C(=O)C(=O)NC)C2)c(F)c1C(=O)Nc1ccc(F)c(F)c1 [Compound 52]	< 100 nM
Cn1cc(S(=O)(=O)NC2CCN(C(=O)C(N)=O)CC2)c(F)c1C(=O)Nc1cc(F)c(F)c(F)c1 [Compound 68]	< 100 nM
CNS(=O)(=O)N[C@@H]1CCN(S(=O)(=O)c2cn(C)c(C(=O)Nc3cc(F)c(F)c(F)c3)c2F)C1 [Compound 60]	300 to 1000 nM
CNC(=O)C(=O)N1CC[C@@H](NS(=O)(=O)c2cn(C)c(C(=O)Nc3ccc(F)c(C(F)F)c3)c2F)C1 [Compound 40]	< 100 nM
CCNC(=O)C(=O)N1CCC(NS(=O)(=O)c2c(F)c(C(=O)Nc3cc(F)c(F)c(F)c3)n(C)c2Br)CC1 [Compound 81]	< 100 nM
CNS(=O)(=O)N1CC[C@@H](NS(=O)(=O)c2c(F)c(C(=O)Nc3ccc(F)c(F)c3)n(C)c2Br)C1 [Compound 8]	< 100 nM
CNS(=O)(=O)N1CCC(C)(NS(=O)(=O)c2cn(C)c(C(=O)Nc3ccc(F)c(F)c3)c2F)CC1 [Compound 25]	< 100 nM
